Assay results as given in ChEMBL document CHEMBL5729167, “Substituted dihydrothienopyrimidines and their use as phosphodiesterase inhibitors” (2022).

Target: Tumor necrosis factor (Homo sapiens, UniProt P01375)
Test: TNF-alpha RELEASE: Human peripheral blood mononuclear cells (PBMC) were isolated from fresh buffy coats by density centrifugation using lymphoprep tubes (Medinor). Frozen PBMC's were washed in serum free assay buffer (RPMI1640 with 25 mM HEPES, 1% pen/strep, […], 0.5% human serum albumin) and living cells counted. Lipopolysaccharide (1 microg/ml; SIGMA) was added to the cells which were then transferred to 384 well tissue culture plates (5×105 c/ml) containing titrated test compounds. The cells were incubated for 18 hours at 37° C. in serum free assay buffer and the level of TNFalpha in the supernatant was quantitated by AlphaLISA (PerkinElmer) by measuring fluorescence intensity at 615 nm.Results were expressed as IC50 values calculated from inhibition curves using as controls the secretion in LPS stimulated wells and the secretion in cells incubated with 10 microM of a PDE4 inhibitor reference compound.

Tumor necrosis factor, sequence (P01375 whole entry): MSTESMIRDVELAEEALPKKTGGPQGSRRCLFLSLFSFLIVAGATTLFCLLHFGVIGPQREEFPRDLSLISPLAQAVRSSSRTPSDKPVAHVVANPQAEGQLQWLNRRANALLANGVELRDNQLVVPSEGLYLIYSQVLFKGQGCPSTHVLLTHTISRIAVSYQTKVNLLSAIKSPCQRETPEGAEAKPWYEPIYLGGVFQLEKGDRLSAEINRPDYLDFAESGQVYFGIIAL

SMILES: CC(=O)N1CC[C@@H](Nc2nc(N3CC(OC(=O)C4CCOCC4)C3)nc3c2[S@+]([O-])CC3)C1
- IC50: > 0.5 µM
